# Results: PubChem BioAssay (NCI)
#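 48-hour exposure; five concentrations; linearly interpolated endpoints. GI50: concentration for 50% inhibition of growth. TGI marks complete inhibition of growth.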
# How the values were obtained:
# Assay in all cases: NCI anticancer screen, dose series, 48 h
# EKVX NSCLC = system: EKVX NSCLC
# ACHN renal = system: ACHN renal
# TK-10 renal = system: TK-10 renal
# SK-MEL-2 melanoma = system: SK-MEL-2 melanoma
# HL-60(TB) leukemia = system: HL-60(TB) leukemia
# UACC-257 melanoma = system: UACC-257 melanoma
# SF-539 CNS = system: SF-539 CNS
# LOX IMVI melanoma = system: LOX IMVI melanoma
# HS 578T breast = system: HS 578T breast
# PC-3 prostate = system: PC-3 prostate
Compound,TGI (EKVX NSCLC) [µM],TGI (ACHN renal) [µM],TGI (TK-10 renal) [µM],TGI (SK-MEL-2 melanoma) [µM],TGI (HL-60(TB) leukemia) [µM],TGI (UACC-257 melanoma) [µM],TGI (SF-539 CNS) [µM],TGI (LOX IMVI melanoma) [µM],GI50 (EKVX NSCLC) [µM],GI50 (ACHN renal) [µM],GI50 (TK-10 renal) [µM],GI50 (HS 578T breast) [µM],TGI (HS 578T breast) [µM],GI50 (SK-MEL-2 melanoma) [µM],GI50 (PC-3 prostate) [µM],TGI (PC-3 prostate) [µM],GI50 (UACC-257 melanoma) [µM],GI50 (SF-539 CNS) [µM],GI50 (LOX IMVI melanoma) [µM],GI50 (HL-60(TB) leukemia) [µM]
CC(C)=CC(=O)Cc1nc2ccccc2[nH]c1=O,> 100,> 100,> 100,> 100,> 100,> 100,> 100,> 100,,,,,,,,,,,,
C/C(=N\NC(N)=S)c1ccc(/C(C)=N/NC(N)=S)cc1,> 100,> 100,> 100,,> 100,> 100,> 100,> 100,,,,,,,,,,,,
O=C1N=C2c3c(sc4c3CCCC4)N=CN2C1N=Nc1ccc(Cl)cc1 (centres undefined),39.1,> 100,> 100,> 100,,> 100,46.8,> 100,7.79,32.3,37.5,29.8,> 100,> 100,13,75.3,34.1,15.9,29.8,
O=[N+]([O-])c1ccc(Cc2nc3ccccc3s2)cc1,> 100,> 100,> 100,> 100,> 100,> 100,70.4,,,,,,,,,,,,,
CC1CCC2(OC1)OC1CC3C4CC=C5CC(OC6OC(CO)C(OC7OC(C)C(OC8OC(C)C(O)C(O)C8O)C(O)C7O)C(O)C6OC6OC(C)C(O)C(O)C6O)CCC5(C)C4CCC3(C)C1C2C (centres undefined),2.1,2.79,2.68,2.5,,2.02,1.52,0.733,,,,,1.77,,,2.08,,,,
CNC(=O)c1cc(Oc2ccc3nc(NC(=O)Nc4ccc(Cl)c(Cl)c4)sc3c2)ccn1,> 100,5.56,9.26,5.97,> 100,,4.69,3.52,3.3,2.1,3.46,2.77,6.66,2.56,,,,2.17,1.82,> 100
COc1ccc(C2CC(=O)Nc3c2c(C)nn3-c2nc3ccccc3[nH]2)cc1 (centres undefined),,> 57.4,> 38.9,9.43,9.83,8.21,4.94,,,3.55,4.08,3.19,17.7,3.45,3.21,48.9,2.65,2.16,,3.13
C/C(=N\NC(N)=S)c1ccc2c(c1)OCO2,> 100,> 100,> 100,> 100,> 100,> 100,> 100,> 100,,,,,,,,,,,,
COc1n[n+]([O-])c(C)cc1[N+](=O)[O-],34.3,18.1,10.2,24.5,,24.4,35.4,36,18.1,5.14,2.42,32.3,67.3,11.2,15.9,32.6,10.9,19.5,12.7,
c1ccc(-c2nc(Nc3ccc(-c4nc5ccccc5[nH]4)cc3)nc(N3CCOCC3)n2)cc1,3.42,2.74,3.76,3.59,0.601,,2.94,,1.59,1.25,2.15,1.89,6.04,1.97,1.8,3.64,,1.42,,0.031
COc1ccc(C2(CN(C)C)COc3cc(OC)c(OC)cc3C2=O)cc1OC (centres undefined),> 100,> 100,> 100,,48.2,> 100,> 100,31.1,,,,,,,,,,,,
N#C/C(=C\c1cn(-c2ccccc2)c2ccccc12)C(=O)O,> 100,> 100,,> 100,,> 100,> 100,> 100,34.2,44,,32.2,> 100,28,58.3,> 100,> 100,39.2,3.71,
O=C(O)C(/C=C/c1ccco1)=N\Nc1nc(-c2ccc(Cl)cc2)cs1,> 50,> 50,> 50,24.8,> 50,> 50,> 50,> 50,17.1,14.6,31.6,,,9.45,17.3,> 50,16.8,14.6,6.62,17.1
Clc1ccc(C2=Nc3ccccc3SC(c3ccc(Cl)c(Cl)c3)C2)c(Cl)c1 (centres undefined),33.6,27.6,36.9,31.5,24.8,41.1,32.9,21.6,,,,,,,,,,,,
O=S(=O)(O)C(F)(F)C(F)(F)C(F)(F)C(F)(F)F,> 100,> 100,> 100,> 100,> 100,> 100,> 100,> 100,,,,,,,,,,,,
Cc1cc2c(C(C)C)c(O)c(O)c3coc(/c1=c1/c(C)cc4c(C(C)C)c(=O)c(=O)c5coc1c45)c32,16.4,12.3,27.8,17.9,17.8,31,12.9,18,,,,,,,,,,,,
COc1ccc(-c2ccc(/C=N/n3cn[nH]c3=S)o2)c([N+](=O)[O-])c1,> 100,> 100,86.6,,33.7,,> 100,,75,50.7,18,30.6,85.3,,35.7,> 100,,40.9,,14.5
COc1ccc(Cl)cc1N1C(=O)C(Cl)=C(Nc2cccc(O)c2)C1=O,> 100,48.6,31.9,,,,,32.8,32.8,16.9,11.3,15.8,46.2,,17.8,38.6,,,15.8,
